{"source": "patent US6503899B2", "about": "“Azepino[4,5-b]pyrano[3,2-e]indoles” (Pharmacia & Upjohn Company, priority 2000, dated 2003)"}
{"smiles": "CC1(C)CCc2c(ccc3[nH]c4c(c23)CCNCC4)O1.Cl", "values": [{"measurement": "melting point", "value": "> 258 °C (dec.)"}]}
{"smiles": "Cl.Cn1c2c(c3c4c(ccc31)OCCC4)CCNCC2", "values": [{"measurement": "melting point", "value": "> 217 °C (dec.)"}]}
